Measured values taken from ChEMBL document CHEMBL4699511, “Cedrol, a Sesquiterpene Alcohol, Enhances the Anticancer Efficacy of Temozolomide in Attenuating Drug Resistance via Regulation of the DNA Damage Response and MGMT Expression” (J Nat Prod, 2020).
Activity calls are given as the source filed them. The rule behind the calls is not given here.

Legend:
DBTRG-05MG [1] = assay: Induction of cell cycle arrest in human DBTRG-05MG cells assessed as accumulation at G2/M phase at 112.4 uM after 24 hrs in presence of TMZ by propidium iodide staining based flow cytometric analysis (reference value: 30.08 +/- 0.1%); format: functional
DBTRG-05MG [2] = assay: Induction of cell cycle arrest in human DBTRG-05MG cells assessed as accumulation at G0/G1 phase at 112.4 uM after 48 hrs by propidium iodide staining based flow cytometric analysis (reference value: 47.16 +/- 1.55%); format: functional
RG2 [3] = assay: Induction of DNA damage in rat RG2 cells assessed as ATM phosphorylation at ser1981 residues at 112.4 uM after 48 hrs by Western blot analysis (reference value: 1); format: functional
[4] = Inhibition of TMZ-induced drug resistance in human DBTRG-05MG cells assessed as MDR1 expression at 112.4 uM after 48 hrs by Western blot analysis (reference value: 1.5); format: functional
RG2 [5] = assay: Synergistic cytotoxicity against rat RG2 cells assessed as combination index at 89.9 uM after 48 hrs in presence of 412.1 uM TMZ by MTT assay; format: functional
DBTRG-05MG [6] = assay: Potentiation of TMZ-induced antitumor activity against human DBTRG-05MG cells xenografted in BALB/c nude mouse assessed as reduction in tumor growth at 75 mg/kg, sc co-treated with TMZ for 18 days by H and E staining-based bright field microscopic analysis; format: functional, organism-based; settings: time 18.0 day
DBTRG-05MG [7] = assay: Potentiation of TMZ-induced antitumor activity against human DBTRG-05MG cells xenografted in BALB/c nude mouse assessed as reduction in MGMT expression at 75 mg/kg, sc co-treated with TMZ for 18 days by fluorescent immunocytochemistry method; format: functional, organism-based; settings: time 18.0 day
DBTRG-05MG [8] = assay: Induction of apoptosis in human DBTRG-05MG cells assessed as Bax expression at 112.4 uM after 48 hrs by Western blot analysis (reference value: 1); format: functional
RG2 [9] = assay: Synergistic cytotoxicity against rat RG2 cells assessed as combination index at 112.4 uM after 48 hrs in presence of 206 uM TMZ by MTT assay; format: functional
[10] = Effect of MGMT expression in rat RG2 cells at 112.4 uM after 48 hrs by Western blot analysis (reference value: 1); format: functional
[11] = Effect on JNK expression in human DBTRG-05MG cells at 112.4uM after 48 hrs by Western blot analysis (reference value: 1); format: functional
RG2 [12] = assay: Induction of cell cycle arrest in rat RG2 cells assessed as accumulation at G0/G1 phase at 112.4 uM after 24 hrs by propidium iodide staining based flow cytometric analysis (reference value: 57.81 +/- 1.9%); format: functional
[13] = Synergistic cytotoxicity against rat CTX TNA2 cells assessed as combination index at 112.4 uM after 48 hrs in presence of 206 uM TMZ by MTT assay; format: cell-based; settings: ctx tna2, 48 h
DBTRG-05MG [14] = assay: Synergistic cytotoxicity against human DBTRG-05MG cells assessed as synergistic effect index at 112.4 uM after 48 hrs in presence of 515.1 uM TMZ by MTT assay; format: functional
RG2 [15] = assay: Induction of cell cycle arrest in rat RG2 cells assessed as accumulation at G2/M phase at 112.4 uM after 6 hrs in presence of TMZ by propidium iodide staining based flow cytometric analysis (reference value: 20.04 +/- 0.55%); format: functional
[16] = molecular target: Serine/threonine-protein kinase AKT (Homo sapiens) (UniProt P31751+Q9Y243+P31749); assay: Inhibition of AKT phosphorylation at S473 residues in human DBTRG-05MG cells at 112.4uM after 48 hrs by Western blot analysis; format: cell-based
Sequence of Serine/threonine-protein kinase AKT (Homo sapiens) (P31749 whole entry, looked up): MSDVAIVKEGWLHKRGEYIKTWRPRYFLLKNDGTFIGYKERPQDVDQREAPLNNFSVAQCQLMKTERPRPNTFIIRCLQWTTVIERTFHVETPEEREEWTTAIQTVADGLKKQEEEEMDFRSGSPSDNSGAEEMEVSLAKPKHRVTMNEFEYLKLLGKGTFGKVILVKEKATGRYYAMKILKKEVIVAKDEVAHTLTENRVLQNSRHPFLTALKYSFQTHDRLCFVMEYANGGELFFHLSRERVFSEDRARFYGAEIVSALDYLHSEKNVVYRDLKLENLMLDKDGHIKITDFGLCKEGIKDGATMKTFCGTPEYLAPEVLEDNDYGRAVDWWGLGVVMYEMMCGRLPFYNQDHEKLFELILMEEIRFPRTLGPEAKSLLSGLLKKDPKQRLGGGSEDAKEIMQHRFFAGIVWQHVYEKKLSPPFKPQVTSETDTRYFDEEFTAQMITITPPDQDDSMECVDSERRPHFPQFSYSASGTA
Sequence of Serine/threonine-protein kinase AKT (Homo sapiens) (P31751 whole entry, looked up): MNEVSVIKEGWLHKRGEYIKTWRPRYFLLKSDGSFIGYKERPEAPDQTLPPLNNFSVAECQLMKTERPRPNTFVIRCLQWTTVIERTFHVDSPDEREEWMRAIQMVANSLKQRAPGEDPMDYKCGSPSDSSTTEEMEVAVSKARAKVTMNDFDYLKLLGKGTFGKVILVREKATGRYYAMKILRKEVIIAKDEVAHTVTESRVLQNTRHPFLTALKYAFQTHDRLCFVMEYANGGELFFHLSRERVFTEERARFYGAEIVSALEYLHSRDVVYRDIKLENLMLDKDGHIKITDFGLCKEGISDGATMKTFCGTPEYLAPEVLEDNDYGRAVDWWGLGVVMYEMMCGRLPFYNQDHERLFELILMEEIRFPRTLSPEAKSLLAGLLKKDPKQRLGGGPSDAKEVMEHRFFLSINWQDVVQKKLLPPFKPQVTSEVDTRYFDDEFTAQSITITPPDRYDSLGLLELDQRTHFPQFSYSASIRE
Sequence of Serine/threonine-protein kinase AKT (Homo sapiens) (Q9Y243 whole entry, looked up): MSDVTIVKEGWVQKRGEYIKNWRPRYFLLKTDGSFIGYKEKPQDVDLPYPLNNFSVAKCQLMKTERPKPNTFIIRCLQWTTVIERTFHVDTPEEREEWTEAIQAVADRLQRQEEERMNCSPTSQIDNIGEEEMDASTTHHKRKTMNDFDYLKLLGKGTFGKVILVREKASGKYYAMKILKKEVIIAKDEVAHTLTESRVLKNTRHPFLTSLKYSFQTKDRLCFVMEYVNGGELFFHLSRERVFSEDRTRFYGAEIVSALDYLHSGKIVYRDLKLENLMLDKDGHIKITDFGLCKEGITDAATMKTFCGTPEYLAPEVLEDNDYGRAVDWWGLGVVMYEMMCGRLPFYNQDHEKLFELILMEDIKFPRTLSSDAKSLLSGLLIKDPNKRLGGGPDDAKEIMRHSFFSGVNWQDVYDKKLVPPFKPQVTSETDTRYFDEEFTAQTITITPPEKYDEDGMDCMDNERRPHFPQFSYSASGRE

DBTRG-05MG [17] = assay: Induction of cell cycle arrest in human DBTRG-05MG cells assessed as CyclinB1 expression at 112.4 uM after 48 hrs in presence of TMZ by Western blot analysis (reference value: 1); format: functional
DBTRG-05MG [18] = assay: Induction of apoptosis in human DBTRG-05MG cells assessed as Bax expression at 112.4 uM after 48 hrs in presence of TMZ by Western blot analysis (reference value: 1); format: functional
RG2 [19] = assay: Induction of cell cycle arrest in rat RG2 cells assessed as accumulation at G0/G1 phase at 112.4 uM after 6 hrs by propidium iodide staining based flow cytometric analysis (reference value: 57.81 +/- 1.9%); format: functional
DBTRG-05MG [20] = assay: Induction of apoptosis in human DBTRG-05MG cells assessed as increase in chromatin condensation at 112.4 uM after 48 hrs in presence of TMZ by TUNEL assay; format: functional, cell-based
DBTRG-05MG [21] = assay: Induction of apoptosis in human DBTRG-05MG cells assessed as cleaved caspace-3 expression at 112.4 uM after 48 hrs in presence of TMZ by Western blot analysis (reference value: 1); format: functional
RG2 [22] = assay: Inhibition of p38 phosphorylation at Tyr182 residues in rat RG2 cells at 112.4uM after 48 hrs in presence of TMZ by Western blot analysis (reference value: 1); format: cell-based
DBTRG-05MG [23] = assay: Induction of apoptosis in human DBTRG-05MG cells assessed as increase in apoptotic body formation at 112.4 uM after 48 hrs in presence of TMZ by TUNEL assay; format: functional, cell-based
DBTRG-05MG [24] = assay: Induction of DNA damage in human DBTRG-05MG cells assessed as ATM phosphorylation at ser1981 residues at 112.4 uM after 48 hrs in presence of TMZ by Western blot analysis (reference value: 1); format: functional
DBTRG-05MG [25] = assay: Induction of cell cycle arrest in human DBTRG-05MG cells assessed as accumulation at G2/M phase at 206 uM after 12 hrs by propidium iodide staining based flow cytometric analysis (reference value: 30.08 +/- 0.1%); format: functional
RG2 [26] = assay: Induction of cell cycle arrest in rat RG2 cells assessed as accumulation at G2/M phase at 206 uM after 48 hrs by propidium iodide staining based flow cytometric analysis (reference value: 20.04 +/- 0.55%); format: functional
DBTRG-05MG [27] = assay: Induction of cell cycle arrest in human DBTRG-05MG cells assessed as p21 expression at 206 uM after 48 hrs by Western blot analysis (reference value: 1); format: functional
DBTRG-05MG [28] = assay: Induction of DNA damage in human DBTRG-05MG cells assessed as ATR phosphorylation at ser428 residues at 206 uM after 48 hrs by Western blot analysis (reference value: 1); format: functional
[29] = Effect on p38 expression in rat RG2 cells at 206 uM after 48 hrs by Western blot analysis (reference value: 1); format: functional
RG2 [30] = assay: Induction of cell cycle arrest in rat RG2 cells assessed as accumulation at S phase at 206 uM after 48 hrs by propidium iodide staining based flow cytometric analysis (reference value: 20.15 +/- 2.44%); format: functional
[31] = Effect on JNK expression in human DBTRG-05MG cells at 206 uM after 48 hrs by Western blot analysis (reference value: 1); format: functional
RG2 [32] = assay: Inhibition of JNK phosphorylation at Thr183/Tyr185 residues in rat RG2 cells at 206 uM after 48 hrs by Western blot analysis (reference value: 1); format: cell-based

## C[C@@H]1CC[C@H]2C(C)(C)[C@H]3C[C@@]12CC[C@@]3(C)O [CEDROL]
DBTRG-05MG [1]
  Activity: 36.89%
DBTRG-05MG [2]
  Activity: 53.13%
RG2 [3]
  fold change (FC): 1
[4]
  fold change (FC): 0.7
RG2 [5]
  CI: 1.34
DBTRG-05MG [6]
  Activity: Active
DBTRG-05MG [7]
  Activity: Active
DBTRG-05MG [8]
  fold change (FC): 1.3
RG2 [9]
  CI: 0.79
[10]
  fold change (FC): 0.7
[11]
  fold change (FC): 0.8
RG2 [12]
  Activity: 72.5%
[13]
  CI: 1.17
DBTRG-05MG [14]
  Activity_index: 0.85
RG2 [15]
  Activity: 19.39%
[16]
  fold change (FC): 0.8
DBTRG-05MG [17]
  fold change (FC): 0.7
DBTRG-05MG [18]
  fold change (FC): 1.7
RG2 [19]
  Activity: 60.95%
DBTRG-05MG [20]
  Activity: Active
DBTRG-05MG [21]
  fold change (FC): 4.4
RG2 [22]
  fold change (FC): 1.8
DBTRG-05MG [23]
  Activity: Active
DBTRG-05MG [24]
  fold change (FC): 2.9

## Cn1nnc2c(C(N)=O)ncn2c1=O [TEMOZOLOMIDE]
DBTRG-05MG [25]
  Activity: 35.43%
RG2 [26]
  Activity: 54.71%
DBTRG-05MG [27]
  fold change (FC): 2.1
DBTRG-05MG [28]
  fold change (FC): 1.5
[29]
  fold change (FC): 0.7
RG2 [30]
  Activity: 18.32%
[31]
  fold change (FC): 0.7
RG2 [32]
  fold change (FC): 0.9
